The results in this text go back to patent US5175163A, “Triazolyl thioamide derivates” (Egis Gyogyszergyar, priority 1989, dated 1992).

For orientation: ED50 means the dose at which the effect has come halfway, by size or by number of responders. As usually defined, the LD50 is the dose at which mortality reaches 50%. The low end stands for greater toxicity, the high end for lower toxicity.

Read-outs that look alike come from different tables or passages of the source.

The subject of one data set is reserpine ptosis on mice. The data set is described as follows: Antagonism of reserpine ptosis on mice. As to conditions: for ED50: Mus musculus, sc; for Therapeutical index: reserpine ptosis, mice, Table II.
For another data set, the system named is pentetrazole spasm. The data set is described as follows: Inhibition of pentetrazole spasm. Format: in vivo. As to conditions: white mice; for ED50: Mus musculus, po, 1 h, orally, one hour before pentetrazole 125 mg/kg intraperitoneally, tonic extensoric spasms of the hind limbs; for Therapeutical index: pentetrazole spasm, Table III.
Data set [1] deals with nicotine spasm and lethality. The data set is described as follows: Inhibition of nicotine spasm and lethality. It counts as in vivo. As to conditions: for ED50: po, 1 h, orally, an hour before nicotine 1.4 mg/kg i.v., spasms and lethality within an hour. As for the experimental part: The test was carried out according to the method of Stone. [Arch. Int. Pharmacodyn.
The next data set deals with Hexobarbital narcosis. Kind of data set: Hexobarbital narcosis potentiating effect. Particulars: for ED50: Mus musculus, po, 1 h; for Therapeutical index: hexobarbital narcosis, white mice, Table V.
For data set [2] the following is noted: Table III (pentetrazole spasm).
Data set [3] has as its system tetrabenazine ptosis on mice. The data set is described as follows: Antagonism of tetrabenazine ptosis on mice. As to conditions: Mus musculus, po.
Experimental: (§1) Groups consisting of 10-20 mice each were treated perorally, with different doses of the compounds to be tested. The control group was treated only with the corresponding carrier. After 30 minutes tetrabenazine [3-isobutyl-9,10-dimethoxy-1,2,3,4,6,7-hexahydrobenzo[a]-quinolizine-2-one] was administered intraperitoneally at a dosage of 50 mg/kg. The number of animals having closed palpebral fissure was determined in each group after 30, 60, 90 and 120 minutes, resp.
(§2) The mean value of ptosis was calculated in each group, and the deviation from that of the control group (i.e. the inhibition) was expressed in percentage.
The subject of data set [4] is tetrabenazine ptosis on mice. As to conditions: mouse, in vivo, po.
Experimental: as §1, §2

Experimental for Hexobarbital narcosis: Groups consisting of six mice were used for each dose. The test compound was administered orally and one hour after this treatment narcosis was induced by means of a 40 mg/kg i.v. dose of hexobarbital. The control group received carrier instead of the test compound.
The ED50 values thus transformed were calculated.
Experimental for reserpine ptosis on mice: Groups consisting of 10 mice each were treated with 6 mg/kg of reserpine, subcutaneously, according to the method of Hoffmeister et. al. [Arzneim. […] The animals with ptosis were counted 60 and 120 minutes after the administration of the compounds to be tested. Evaluation was carried out as given under the above test.

In the data set with reserpine ptosis on mice, `CN(C)CCC=C1c2ccccc2CCc2ccccc21` [Amitryptiline, reference compound] returned an ED50 of 65 mg/kg and a Therapeutical index of 3.5. The molecule further yielded an LD50 in “in vivo” of 225 mg/kg.

Take `Nc1nc(N2CCOCC2)nn1C(=S)NCCCOc1cccc(CN2CCCCC2)c1` [Example 1, 1-(5-Amino-3-morpholino-1H-1,2,4-triazol-1-yl)-N-{3-[3-(1-piperidinylmethyl)phenoxyl]propyl}carbothioamide]: the ED50 in the data set on pentetrazole spasm worked out at 295 mg/kg; in the data set on reserpine ptosis on mice it was 17 mg/kg; in data set [1], 68 mg/kg; in the data set with Hexobarbital narcosis, 50 mg/kg. Moreover, the Therapeutical index with pentetrazole spasm is given as greater than 7; in the data set on reserpine ptosis on mice, greater than 117; in data set [1] (nicotine spasm and lethality, Table IV), greater than 29; in the data set on Hexobarbital narcosis it was greater than 40. The 50% lethal dose (LD50) in “in vivo” was greater than 2000 mg/kg.

`CN(C)c1nc(N)n(C(=S)NCCCOc2cccc(CN3CCCCC3)c2)n1` [Example 2, 1-[5-Amino-3-dimethylamino-1H-1,2,4-triazol-1-yl]-N-{3-[3-(1-piperidinylmethyl)phenoxy]propyl}carbothioamide]: the ED50 worked out at 64 mg/kg in the data set on pentetrazole spasm and 110 mg/kg in the data set on Hexobarbital narcosis. Moreover, the Therapeutical index in the data set with pentetrazole spasm is reported as greater than 15; in the data set on Hexobarbital narcosis it was greater than 9. For the same molecule, the LD50 (in data set [2]; in the data set “in vivo”) was greater than 1000 mg/kg in each case.

`CN1CCN(c2nc(N)n(C(=S)NCCCOc3cccc(CN4CCCCC4)c3)n2)CC1` [Example 3, 1-[5-Amino-3-(4-methylpiperazinyl)-1H-1,2,4-triazol-1-yl]-N-{3-[3-(1-piperidinylmethyl)phenoxy]propyl}carbothioamide] registered an ED50 in data set [3] of 11 mg/kg. The 50% lethal dose (LD50) in “in vivo” was greater than 1000 mg/kg. This molecule also returned a Therapeutical index in data set [4] greater than 90.

In the case of `C=CCN(CC=C)c1nc(N)n(C(=S)NCCCOc2cccc(CN3CCCCC3)c2)n1` [Example 5, 1-[5-Amino-3-diallylamino-1H-1,2,4-triazol-1-yl]-N-{3-[3-(1-piperidinylmethyl)phenoxy]propyl}carbothioamide], the LD50 in “in vivo” is greater than 1000 mg/kg. Moreover, in the data set with Hexobarbital narcosis, the ED50 is 200 mg/kg and the Therapeutical index was greater than 5.

In the data set with reserpine ptosis on mice, `COc1ccc(CCNC(=S)n2nc(SC)nc2N)cc1OC` [Example 6, 1-[5-Amino-3-methylthio-1H-1,2,4-triazol-1-yl]-N-[2-(3,4-dimethoxyphenyl)ethyl]carbothioamide] came in with an ED50 of 20 mg/kg and a Therapeutical index greater than 100. Also, the 50% lethal dose (LD50) in “in vivo” is greater than 2000 mg/kg.

For `CCCC(C)(COC(N)=O)COC(N)=O` [Meprobamate, reference compound], the LD50 in the data set “in vivo” stood at 1100 mg/kg. For the same molecule, the Therapeutical index in the data set with Hexobarbital narcosis is given as 4.1.

In turn, `OC(CCN1CCCCC1)(c1ccccc1)C1CCCCC1` (stereo not shown) [Trihexyphenidyl, reference compound] showed an ED50 in data set [1] of 20 mg/kg.

`CN1C(=O)OC(C)(C)C1=O` [Trimethadion, reference compound] returned an LD50 in data set [2] of 2050 mg/kg.
